Experimental data as given in ChEMBL document CHEMBL5154644, “Design, Synthesis, and Structure-Activity Relationship Optimization of Pyrazolopyrimidine Amide Inhibitors of Phosphoinositide 3-Kinase γ (PI3Kγ)” (J Med Chem, 2022).
The source made the active and inactive calls. The calls are words filed in the database; no cut-off is given here.

What was measured:
[1] = Volume of distribution at steady state in Beagle dog at 1 mg/kg, iv; type: ADME, organism-based, Canis lupus familiaris; conditions: in vivo
[2] = Volume of distribution at steady state in cynomolgus monkey at 1 mg/kg, iv; type: ADME, organism-based, Macaca fascicularis; conditions: in vivo
[3] = Metabolic stability in human hepatocytes assessed as intrinsic clearance per 10^6 cells at 0.5 uM by LC-MS/MS analysis; type: ADME, cell-based, Hepatocyte; conditions: read-out: CLH
[4] = Apparent permeability of the compound across apical to basolateral side in human Caco-2 cells; type: ADME, cell-based
[5] = target: hERG (Homo sapiens, UniProt Q12809); experiment: Inhibition of human ERG at 10 uM by patch clamp assay relative to control; type: toxicity
[6] = target: Phosphatidylinositol 4,5-bisphosphate 3-kinase catalytic subunit alpha isoform (Homo sapiens, UniProt P42336); experiment: Inhibition of PI3Kalpha (unknown origin) using PIP2 as substrate preincubated for 1 hr followed by substrate addition and measured after 60 mins in presence of ATP by ADP-glo assay
[7] = target: T1, Phosphatidylinositol 4,5-bisphosphate 3-kinase catalytic subunit delta isoform (Homo sapiens, UniProt O00329); experiment: Inhibition of PI3Kdelta (unknown origin) using PIP2 as substrate preincubated for 1 hr followed by substrate addition and measured after 60 mins in presence of ATP by ADP-glo assay
T1 sequence (O00329 whole entry): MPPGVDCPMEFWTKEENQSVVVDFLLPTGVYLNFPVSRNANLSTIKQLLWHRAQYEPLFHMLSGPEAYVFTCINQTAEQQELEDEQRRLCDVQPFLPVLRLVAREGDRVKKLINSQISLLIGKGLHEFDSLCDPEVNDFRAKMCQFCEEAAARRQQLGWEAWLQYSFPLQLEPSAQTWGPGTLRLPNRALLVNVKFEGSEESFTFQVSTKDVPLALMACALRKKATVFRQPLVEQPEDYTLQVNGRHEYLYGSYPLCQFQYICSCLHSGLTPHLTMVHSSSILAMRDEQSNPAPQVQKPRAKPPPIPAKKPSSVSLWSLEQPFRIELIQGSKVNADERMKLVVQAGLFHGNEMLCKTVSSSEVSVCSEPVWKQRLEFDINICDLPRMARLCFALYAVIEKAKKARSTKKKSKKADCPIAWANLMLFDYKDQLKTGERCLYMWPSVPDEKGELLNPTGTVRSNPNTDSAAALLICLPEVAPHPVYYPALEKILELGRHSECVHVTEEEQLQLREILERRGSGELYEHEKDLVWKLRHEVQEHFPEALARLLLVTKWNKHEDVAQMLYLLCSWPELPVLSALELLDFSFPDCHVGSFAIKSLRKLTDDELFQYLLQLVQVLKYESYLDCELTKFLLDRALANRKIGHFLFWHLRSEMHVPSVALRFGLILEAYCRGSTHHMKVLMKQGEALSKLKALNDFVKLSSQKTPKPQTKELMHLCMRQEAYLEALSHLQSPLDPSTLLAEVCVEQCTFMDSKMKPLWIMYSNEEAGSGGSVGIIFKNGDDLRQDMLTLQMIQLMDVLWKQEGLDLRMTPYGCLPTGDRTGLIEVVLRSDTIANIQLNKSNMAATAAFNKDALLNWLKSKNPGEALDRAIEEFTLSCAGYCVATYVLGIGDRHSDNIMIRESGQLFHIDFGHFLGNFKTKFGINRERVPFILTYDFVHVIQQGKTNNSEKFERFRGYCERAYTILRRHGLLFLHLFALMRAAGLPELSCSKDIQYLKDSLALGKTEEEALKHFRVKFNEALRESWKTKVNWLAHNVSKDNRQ

[8] = species on record: Homo sapiens; experiment: Selectivity ratio of IC50 for inhibition of PI3Kalpha (unknown origin) to IC50 for inhibition of PI3Kgamma (unknown origin)
[9] = Half life in cynomolgus monkey at 1 mg/kg, iv; type: ADME, organism-based, Macaca fascicularis; conditions: in vivo
[10] = Cmax in Sprague-Dawley rat at 10 mg/kg, po measured up to 24 hrs by LC-MS/MS analysis analysis; type: ADME, organism-based; parameters: dose 10 mg/kg, time < 24 hrs, route po; conditions: in vivo
[11] = AUC(0 to infinity) in Sprague-Dawley rat at 10 mg/kg, po measured up to 24 hrs by LC-MS/MS analysis analysis; type: ADME, organism-based; parameters: dose 10 mg/kg, time < 24 hrs, route po; conditions: in vivo
[12] = Half life in C57BL/6 mouse at 0.5 mg/kg, iv; type: ADME, organism-based; conditions: in vivo
[13] = target: T2, Phosphatidylinositol 4,5-bisphosphate 3-kinase catalytic subunit gamma isoform (Homo sapiens, UniProt P48736); experiment: Inhibition of P13Kgamma in LPS and IFNgamma stimulated human M1 macrophage assessed as increase in IL1B expression at 1 uM pretreated for 1 hr followed by LPS and IFNgamma stimulation by qRT-PCR analysis; type: cell-based
Target sequence in this assay (P48736 whole entry, looked up, canonical isoform): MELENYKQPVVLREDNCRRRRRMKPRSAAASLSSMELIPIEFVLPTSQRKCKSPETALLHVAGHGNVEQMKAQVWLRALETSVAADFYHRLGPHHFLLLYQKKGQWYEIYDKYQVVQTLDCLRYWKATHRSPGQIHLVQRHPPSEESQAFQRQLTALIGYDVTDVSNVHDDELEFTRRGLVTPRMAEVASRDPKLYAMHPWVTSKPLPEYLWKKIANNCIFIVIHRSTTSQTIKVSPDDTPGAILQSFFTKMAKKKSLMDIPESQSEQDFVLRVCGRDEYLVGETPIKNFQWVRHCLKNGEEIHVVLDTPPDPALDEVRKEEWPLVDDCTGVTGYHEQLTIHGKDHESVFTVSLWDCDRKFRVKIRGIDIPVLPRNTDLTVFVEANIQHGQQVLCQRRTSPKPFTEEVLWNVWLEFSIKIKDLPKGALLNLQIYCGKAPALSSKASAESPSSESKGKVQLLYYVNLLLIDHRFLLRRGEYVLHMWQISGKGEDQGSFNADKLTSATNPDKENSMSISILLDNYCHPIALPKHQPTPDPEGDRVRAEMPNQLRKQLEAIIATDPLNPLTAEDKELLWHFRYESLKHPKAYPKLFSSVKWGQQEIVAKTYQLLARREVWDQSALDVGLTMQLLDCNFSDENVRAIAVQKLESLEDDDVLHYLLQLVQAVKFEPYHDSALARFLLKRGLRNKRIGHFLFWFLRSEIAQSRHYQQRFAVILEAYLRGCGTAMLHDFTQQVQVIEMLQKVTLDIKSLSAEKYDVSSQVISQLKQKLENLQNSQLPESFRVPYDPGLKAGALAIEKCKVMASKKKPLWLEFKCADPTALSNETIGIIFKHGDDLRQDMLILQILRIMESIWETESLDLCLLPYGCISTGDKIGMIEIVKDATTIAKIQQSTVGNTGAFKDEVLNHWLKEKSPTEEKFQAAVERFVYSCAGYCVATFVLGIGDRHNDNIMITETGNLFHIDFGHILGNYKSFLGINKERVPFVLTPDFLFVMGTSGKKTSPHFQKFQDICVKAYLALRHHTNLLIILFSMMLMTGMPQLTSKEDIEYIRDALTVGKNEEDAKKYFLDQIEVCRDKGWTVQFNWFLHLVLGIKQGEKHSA

[14] = Oral bioavailability in Sprague-Dawley rat at 10 mg/kg measured up to 24 hrs by LC-MS/MS analysis; type: ADME, organism-based; conditions: in vivo
[15] = Metabolic stability in human hepatocytes assessed as parent compound remaining at 0.5 uM measured after 2 hrs by LC-MS/MS analysis; type: ADME, cell-based, Hepatocyte
[16] = AUC(0 to infinity) in Sprague-Dawley rat at 1 mg/kg, iv measured up to 8 hrs by LC-MS/MS analysis; type: ADME, organism-based; parameters: dose 1 mg/kg, time < 8 hrs, route iv; conditions: in vivo
[17] = target: Phosphatidylinositol 4,5-bisphosphate 3-kinase catalytic subunit beta isoform (Homo sapiens, UniProt P42338); experiment: Inhibition of PI3Kbeta (unknown origin) using PIP2 as substrate preincubated for 1 hr followed by substrate addition and measured after 60 mins in presence of ATP by ADP-glo assay
[18] = Half life in Sprague-Dawley rat at 1 mg/kg, iv measured up to 8 hrs by LC-MS/MS analysis; type: ADME, organism-based; conditions: in vivo
[19] = target: T2, Phosphatidylinositol 4,5-bisphosphate 3-kinase catalytic subunit gamma isoform; experiment: Inhibition of P13Kgamma in LPS and IFNgamma stimulated human M1 macrophage assessed as increase in IL12B expression at 1 uM pretreated for 1 hr followed by LPS and IFNgamma stimulation by qRT-PCR analysis; type: cell-based
Target sequence in this assay (P48736 whole entry, looked up, canonical isoform): as above

[20] = MRT (infinity) in C57BL/6 mouse at 0.5 mg/kg, iv; type: ADME, organism-based; conditions: in vivo
[21] = target: T2, Phosphatidylinositol 4,5-bisphosphate 3-kinase catalytic subunit gamma isoform; experiment: Inhibition of PI3Kgamma in SDF-1alpha stimulated human whole blood assessed as reduction in phospho-AKT kinase activity preincubated for 1 hr followed by SDF-1alpha stimulation and measured after 2 mins by flow cytometric analysis; type: tissue-based
Target sequence in this assay (P48736 whole entry, canonical isoform): as the sequence (P48736 whole entry, looked up, canonical isoform) above

[22] = Plasma protein binding in Sprague-Dawley rat plasma at 1 mg/kg, iv measured up to 8 hrs by LC-MS/MS analysis; type: ADME, organism-based; conditions: read-out: PPB (converted)
[23] = Metabolic stability in human hepatocytes assessed as parent compound remaining at 0.5 uM measured after 4 hrs by LC-MS/MS analysis; type: ADME, cell-based, Hepatocyte; conditions: read-out: Stability
[24] = AUC(0 to infinity) in cynomolgus monkey at 1 mg/kg, iv; type: ADME, organism-based, Macaca fascicularis; parameters: time infinity, dose 1 mg/kg, route iv; conditions: in vivo
[25] = target: T2, Phosphatidylinositol 4,5-bisphosphate 3-kinase catalytic subunit gamma isoform; experiment: Inhibition of PI3Kgamma (unknown origin) using PIP2 as substrate preincubated for 1 hr followed by substrate addition and measured after 60 mins in presence of ATP by ADP-glo assay
Target sequence in this assay (P48736 whole entry, canonical isoform): as the sequence (P48736 whole entry, looked up, canonical isoform) above

[26] = Clearance in C57BL/6 mouse at 0.5 mg/kg, iv; type: ADME, organism-based; conditions: in vivo
[27] = MRT (infinity) in Beagle dog at 1 mg/kg, iv; type: ADME, organism-based, Canis lupus familiaris; conditions: in vivo
[28] = Plasma protein binding in cynomolgus monkey at 1 mg/kg, iv; type: ADME, organism-based, Macaca fascicularis; conditions: read-out: PPB (converted)
[29] = MRT (infinity) in Sprague-Dawley rat at 1 mg/kg, iv measured up to 8 hrs by LC-MS/MS analysis; type: ADME, organism-based; conditions: in vivo

Sequence of hERG (Q12809 whole entry, canonical isoform): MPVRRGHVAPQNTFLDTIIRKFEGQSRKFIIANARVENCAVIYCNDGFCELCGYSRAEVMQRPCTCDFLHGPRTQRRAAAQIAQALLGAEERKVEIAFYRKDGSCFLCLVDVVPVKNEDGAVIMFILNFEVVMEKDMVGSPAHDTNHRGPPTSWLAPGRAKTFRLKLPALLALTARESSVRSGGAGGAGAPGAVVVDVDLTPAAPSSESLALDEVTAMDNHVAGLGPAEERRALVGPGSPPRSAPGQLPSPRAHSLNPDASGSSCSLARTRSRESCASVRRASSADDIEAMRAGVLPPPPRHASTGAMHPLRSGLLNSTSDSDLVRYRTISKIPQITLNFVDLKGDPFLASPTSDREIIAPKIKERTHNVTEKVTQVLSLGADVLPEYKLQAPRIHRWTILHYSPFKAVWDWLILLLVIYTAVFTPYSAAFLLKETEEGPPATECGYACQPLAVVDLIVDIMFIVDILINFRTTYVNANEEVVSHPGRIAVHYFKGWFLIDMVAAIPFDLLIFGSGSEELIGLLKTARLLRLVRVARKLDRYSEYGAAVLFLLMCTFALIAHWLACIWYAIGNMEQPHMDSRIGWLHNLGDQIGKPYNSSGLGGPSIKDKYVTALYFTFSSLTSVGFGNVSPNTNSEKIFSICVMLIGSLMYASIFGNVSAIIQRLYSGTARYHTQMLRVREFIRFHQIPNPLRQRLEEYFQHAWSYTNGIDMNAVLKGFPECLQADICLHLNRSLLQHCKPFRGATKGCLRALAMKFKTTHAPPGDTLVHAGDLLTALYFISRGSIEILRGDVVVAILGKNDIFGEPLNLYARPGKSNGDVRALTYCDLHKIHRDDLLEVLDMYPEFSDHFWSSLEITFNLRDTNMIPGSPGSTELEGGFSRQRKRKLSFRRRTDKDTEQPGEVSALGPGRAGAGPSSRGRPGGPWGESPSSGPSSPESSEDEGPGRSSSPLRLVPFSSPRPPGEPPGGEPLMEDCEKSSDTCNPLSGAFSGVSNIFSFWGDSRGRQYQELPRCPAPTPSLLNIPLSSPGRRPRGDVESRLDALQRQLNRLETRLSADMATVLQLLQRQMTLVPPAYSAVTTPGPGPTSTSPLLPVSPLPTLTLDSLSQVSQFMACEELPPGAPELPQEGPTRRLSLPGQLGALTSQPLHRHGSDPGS
Sequence of Phosphatidylinositol 4,5-bisphosphate 3-kinase catalytic subunit beta isoform (P42338 whole entry, canonical isoform): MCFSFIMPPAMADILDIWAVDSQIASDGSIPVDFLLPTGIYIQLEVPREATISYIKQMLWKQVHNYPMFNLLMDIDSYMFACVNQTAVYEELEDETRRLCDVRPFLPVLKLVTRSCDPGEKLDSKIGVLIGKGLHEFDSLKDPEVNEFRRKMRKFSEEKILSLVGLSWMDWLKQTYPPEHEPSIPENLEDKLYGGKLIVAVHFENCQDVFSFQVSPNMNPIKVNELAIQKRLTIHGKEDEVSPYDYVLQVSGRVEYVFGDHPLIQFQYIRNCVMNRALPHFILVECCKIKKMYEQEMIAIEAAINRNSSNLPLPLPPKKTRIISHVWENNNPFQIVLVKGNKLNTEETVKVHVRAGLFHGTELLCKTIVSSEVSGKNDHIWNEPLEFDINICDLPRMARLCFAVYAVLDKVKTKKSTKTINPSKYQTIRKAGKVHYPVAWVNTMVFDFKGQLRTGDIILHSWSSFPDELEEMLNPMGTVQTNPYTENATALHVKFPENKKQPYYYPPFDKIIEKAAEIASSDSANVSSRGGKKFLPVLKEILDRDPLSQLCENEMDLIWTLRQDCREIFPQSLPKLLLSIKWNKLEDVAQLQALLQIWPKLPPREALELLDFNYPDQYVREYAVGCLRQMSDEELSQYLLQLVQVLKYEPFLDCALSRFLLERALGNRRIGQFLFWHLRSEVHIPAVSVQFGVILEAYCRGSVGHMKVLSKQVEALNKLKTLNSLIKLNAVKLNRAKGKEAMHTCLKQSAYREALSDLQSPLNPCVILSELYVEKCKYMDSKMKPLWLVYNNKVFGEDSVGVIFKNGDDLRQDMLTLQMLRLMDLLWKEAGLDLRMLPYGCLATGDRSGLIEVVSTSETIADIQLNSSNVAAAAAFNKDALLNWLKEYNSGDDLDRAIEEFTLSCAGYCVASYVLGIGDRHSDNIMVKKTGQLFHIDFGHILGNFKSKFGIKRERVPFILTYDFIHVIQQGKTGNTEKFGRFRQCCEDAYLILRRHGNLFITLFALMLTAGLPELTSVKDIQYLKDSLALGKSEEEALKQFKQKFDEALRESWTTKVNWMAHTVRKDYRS
Sequence of Phosphatidylinositol 4,5-bisphosphate 3-kinase catalytic subunit alpha isoform (P42336 whole entry, canonical isoform): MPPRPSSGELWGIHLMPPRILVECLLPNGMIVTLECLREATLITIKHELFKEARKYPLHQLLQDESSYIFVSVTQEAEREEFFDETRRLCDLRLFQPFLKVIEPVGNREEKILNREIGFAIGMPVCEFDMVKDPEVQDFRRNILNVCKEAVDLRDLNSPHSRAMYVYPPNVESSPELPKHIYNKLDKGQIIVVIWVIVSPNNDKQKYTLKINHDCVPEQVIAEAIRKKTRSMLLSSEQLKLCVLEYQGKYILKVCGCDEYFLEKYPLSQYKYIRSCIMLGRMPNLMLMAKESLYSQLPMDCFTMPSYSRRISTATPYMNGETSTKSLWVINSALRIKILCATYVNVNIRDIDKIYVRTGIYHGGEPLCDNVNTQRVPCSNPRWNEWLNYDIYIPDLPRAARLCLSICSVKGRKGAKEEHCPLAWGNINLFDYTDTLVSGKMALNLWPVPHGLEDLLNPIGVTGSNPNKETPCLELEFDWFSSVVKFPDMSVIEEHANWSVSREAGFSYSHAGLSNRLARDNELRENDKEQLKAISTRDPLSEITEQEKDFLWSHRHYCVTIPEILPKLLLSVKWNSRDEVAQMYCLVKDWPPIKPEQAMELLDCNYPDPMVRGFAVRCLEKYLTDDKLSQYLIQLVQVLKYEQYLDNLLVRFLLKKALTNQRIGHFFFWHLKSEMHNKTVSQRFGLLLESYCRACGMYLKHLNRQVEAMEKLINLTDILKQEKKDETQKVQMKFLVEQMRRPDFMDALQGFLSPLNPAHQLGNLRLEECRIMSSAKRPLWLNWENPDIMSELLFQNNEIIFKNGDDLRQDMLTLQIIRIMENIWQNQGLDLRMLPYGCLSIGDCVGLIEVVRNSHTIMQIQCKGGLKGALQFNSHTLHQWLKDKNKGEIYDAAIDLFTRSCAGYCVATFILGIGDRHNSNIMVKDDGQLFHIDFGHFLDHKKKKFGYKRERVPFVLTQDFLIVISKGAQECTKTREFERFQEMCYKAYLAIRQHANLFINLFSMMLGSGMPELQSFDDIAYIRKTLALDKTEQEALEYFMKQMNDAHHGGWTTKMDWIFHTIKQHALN

Compound	Vdss [1] [L/kg]	Vdss [2] [L/kg]	hepatocyte CLint at 0.5 µM [3] [µL/min/1e6 cells]	Papp A→B [4] [×10⁻⁶ cm/s]	inhibition at 10 µM [5] [%]	IC50 [6] [nM]	IC50 [7] [nM]	Ratio IC50 [8]	half-life [9] [h]	Cmax [10] [ng/mL]	AUC(0-inf) [11] [ng·h/mL]	half-life [12] [h]	inhibition [13]	bioavailability [14] [%]	Stability [15] [%]	AUC(0-inf) [16] [ng·h/mL]	IC50 [17] [nM]	half-life [18] [h]	inhibition [19]	MRT inf [20] [h]	also measured
C[C@@H](C1CC1)N1Cc2cc(-c3ccn4nc(N)c(C(=O)N[C@H]5CC[C@@](C)(O)CC5)c4n3)cc(OC(F)F)c2C1=O	3.55	3.69	< 1.2	16.8	17	1250	1080	657	3.18	703	8160	4.98	Active	102	94	630	9210	1.89	Active	1.87	IC50 [21]: 300 nM; fraction unbound at 8 h [22]: 0.021; remaining at 4 h, 0.5 µM [23]: > 95%; AUC(0-inf) [24]: 925 ng·h/mL; IC50 [25]: 1.9 nM; clearance [26]: 14.7 mL/min/kg; MRT inf [27]: 5.92 h; fraction unbound [28]: 0.034; MRT inf [29]: 1.86 h
C[C@@H](C1CC1)N1Cc2cc(-c3ccn4nc(N)c(C(=O)N[C@H]5CC[C@@](C)(O)CC5)c4n3)cc(OC(F)(F)F)c2C1=O	3.24	3.77	< 1.2	4.7	5	2650	1650	946	3.65	25	249	3.93	Active	4	58	797	29300	2.17	Active	2.03	IC50 [21]: 240 nM; fraction unbound at 8 h [22]: 0.023; remaining at 4 h, 0.5 µM [23]: > 95%; AUC(0-inf) [24]: 949 ng·h/mL; IC50 [25]: 2.8 nM; clearance [26]: 17.2 mL/min/kg; MRT inf [27]: 3.85 h; fraction unbound [28]: 0.05; MRT inf [29]: 2.33 h
